# Measured values reported in patent US8329755B2, “Methods for treating retroviral infections” (Roche Palo Alto LLC, priority 2004, dated 2012).
row,SMILES,melting point
1,"COc1ccc(CC(=O)Nc2ccc(S(N)(=O)=O)cc2C)cc1Oc1cc(C#N)ccc1Cl [Compound I-66, 2-[3-(2-Chloro-5-cyano-phenoxy)-4-methoxy-phenyl]-N-(2-methyl-4-sulfamoyl-phenyl)-acetamide]",232.9 to 236.9 °C
2,"CCc1ccc(CC(=O)Nc2ccc(S(N)(=O)=O)cc2C)cc1Oc1cc(Br)cc(F)c1Cl [Compound I-40, 2-[3-(5-Bromo-2-chloro-3-fluoro-phenoxy)-4-ethyl-phenyl]-N-(2-methyl-4-sulfamoyl-phenyl)-acetamide]",207 to 209.9 °C
3,"CCc1ccc(CC(=O)Nc2ccc(S(N)(=O)=O)cc2)cc1Oc1cc(Cl)ccc1Br [Compound I-15, 2-[3-(2-Bromo-5-chloro-phenoxy)-4-ethyl-phenyl]-N-(4-sulfamoyl-phenyl)-acetamide]",193.7 to 195.9 °C
4,"CCc1ccc(CC(=O)Nc2ccccc2Cl)cc1Oc1cc(Br)cc(F)c1Cl [Compound I-41, 2-[3-(5-Bromo-2-chloro-3-fluoro-phenoxy)-4-ethyl-phenyl]-N-(2-chloro-phenyl)-acetamide]",146.6 to 147.2 °C
5,"COc1ccc(CC(=O)Nc2ccccc2Cl)cc1Oc1cc(Cl)cc(C#N)c1 [Compound I-61, 2-[3-(3-Chloro-5-cyano-phenoxy)-4-methoxy-phenyl]-N-(2-chloro-phenyl)-acetamide]",175.7 to 178.3 °C
6,"COc1cc(CC(=O)Nc2ccc(S(N)(=O)=O)cc2C)cc(Oc2cc(C#N)ccc2Cl)c1 [Compound I-103, 2-[3-(2-Chloro-5-cyano-phenoxy)-5-methoxy-phenyl]-N-(2-methyl-4-sulfamoyl-phenyl)-acetamide]",179.8 to 184 °C
7,"Cc1ccc(CC(=O)Nc2ccc(S(C)(=O)=O)cc2Cl)c(F)c1Oc1cc(C#N)cc(C(F)F)c1 [Compound I-112, N-(2-Chloro-4-methanesulfonyl-phenyl)-2-[3-(3-cyano-5-difluoromethyl-phenoxy)-2-fluoro-4-methyl-phenyl]-acetamide]",179.9 to 182 °C
8,"N#Cc1cc(Oc2c(Cl)ccc(CC(=O)Nc3ccccc3Cl)c2F)cc(C(F)F)c1 [Compound I-14, 2-[4-Chloro-3-(3-cyano-5-difluoromethyl-phenoxy)-2-fluoro-phenyl]-N-(2-chloro-phenyl)-acetamide]",169.5 to 171 °C
9,"Cc1cc(S(N)(=O)=O)ccc1NC(=O)Cc1ccc(C)c(Oc2cc(C#N)cc(C#N)c2)c1 [Compound I-43, 2-[3-(3,5-Dicyano-phenoxy)-4-methyl-phenyl]-N-(2-methyl-4-sulfamoyl-phenyl)-acetamide]",228.6 to 230.9 °C
10,"Cc1cc(S(=O)(=O)N2CCSCC2)ccc1NC(=O)Cc1ccc(C)c(Oc2cc(Cl)cc(C#N)c2)c1 [Compound I-117, 2-[3-(3-Chloro-5-cyano-phenoxy)-4-methyl-phenyl]-N-[2-methyl-4-(thiomorpholine-4-sulfonyl)-phenyl]-acetamide]",151.9 to 155.3 °C
11,"CC(C)c1ccc(CC(=O)Nc2ccc(S(N)(=O)=O)cc2)cc1Oc1cc(Cl)ccc1Br [Compound I-26, 2-[3-(2-Bromo-5-chloro-phenoxy)-4-isopropyl-phenyl]-N-(4-sulfamoyl-phenyl)-acetamide]",204.1 to 206.7 °C
12,"COc1ccc(CC(=O)Nc2ccc(S(N)(=O)=O)cc2C)cc1Oc1cc(Cl)cc(C#N)c1 [Compound I-73, 2-[3-(3-Chloro-5-cyano-phenoxy)-4-methoxy-phenyl]-N-(2-methyl-4-sulfamoyl-phenyl)-acetamide]",222.3 to 224.3 °C
13,"Cc1ccc(CC(=O)Nc2ccc(S(N)(=O)=O)cc2)cc1Oc1cc(Cl)ccc1Br [Compound I-30, 2-[3-(2-Bromo-5-chloro-phenoxy)-4-methyl-phenyl]-N-(4-sulfamoyl-phenyl)-acetamide]",236.9 to 239.3 °C
14,"COc1ccc(CC(=O)Nc2ccccc2Cl)cc1Oc1cc(C#N)ccc1Cl [Compound I-62, 2-[3-(2-Chloro-5-cyano-phenoxy)-4-methoxy-phenyl]-N-(2-chloro-phenyl)-acetamide]",194 to 197.8 °C
15,"Cc1cc(S(N)(=O)=O)ccc1NC(=O)Cc1ccc(Cl)c(Oc2cc(C#N)cc(C#N)c2)c1F [Compound I-32, 2-[4-Chloro-3-(3,5-dicyano-phenoxy)-2-fluoro-phenyl]-N-(2-methyl-4-sulfamoyl-phenyl)-acetamide]",248.4 to 250.8 °C
16,"Cc1ccc(CC(=O)Nc2ccc(S(N)(=O)=O)cc2Cl)c(F)c1Oc1cc(C#N)cc(C(F)F)c1 [Compound I-84, N-(2-Chloro-4-sulfamoyl-phenyl)-2-[3-(3-cyano-5-difluoromethyl-phenoxy)-2-fluoro-4-methyl-phenyl]-acetamide]",218 to 218.7 °C

# Continued, values first:
row,melting point,SMILES
1,159.9 to 162.8 °C,"CSCCCNS(=O)(=O)c1ccc(NC(=O)Cc2ccc(C)c(Oc3cc(Cl)cc(C#N)c3)c2)c(C)c1 [Compound I-131, 2-[3-(3-Chloro-5-cyano-phenoxy)-4-methyl-phenyl]-N-[2-methyl-4-(3-methylsulfanyl-propylsulfamoyl)-phenyl]-acetamide]"
2,126.8 to 127.7 °C,"O=C(Cc1ccc(Cl)c(Oc2cccc(Cl)c2)c1)Nc1ccccc1 [Compound I-192, 2-[4-Chloro-3-(3-chloro-phenoxy)-phenyl]-N-phenyl-acetamide]"
3,129.5 to 132.8 °C,"Cc1ccc(CC(=O)Nc2ccnn2C)cc1Oc1cc(Cl)cc(C#N)c1 [Compound I-227, 2-[3-(3-Chloro-5-cyano-phenoxy)-4-methyl-phenyl]-N-(2-methyl-2H-pyrazol-3-yl)-acetamide]"
4,260.9 to 263.3 °C,"Cc1cc(CC(=O)Nc2ccc(S(N)(=O)=O)cc2)cc(C(=O)c2ccc(Cl)cc2)c1 [Compound I-254, 2-[3-(4-Chloro-benzoyl)-5-methyl-phenyl]-N-(4-sulfamoyl-phenyl)-acetamide]"
5,229.6 to 231.1 °C,"Cc1ccc(C#N)cc1C(=O)c1cc(CC(=O)Nc2ccc(S(N)(=O)=O)cc2)ccc1C [Compound I-266, 2-[3-(5-Cyano-2-methyl-benzoyl)-4-methyl-phenyl]-N-(4-sulfamoyl-phenyl)-acetamide]"
6,180.5 to 181.4 °C,"Cc1cc(S(=O)(=O)CC(=O)O)ccc1NC(=O)Cc1ccc(C)c(Oc2cc(Cl)cc(C#N)c2)c1 [Compound I-152, (4-{2-[3-(3-Chloro-5-cyano-phenoxy)-4-methyl-phenyl]-acetylamino}-3-methyl-benzenesulfonyl)-acetic acid]"
7,143.4 to 144 °C,"N#Cc1cc(Cl)cc(Oc2c(Cl)ccc(CC(=O)Nc3ccc(S(=O)(=O)NC(=O)CCC(=O)O)cc3Cl)c2F)c1 [Compound I-188, 4-(3-Chloro-4-{2-[4-chloro-3-(3-chloro-5-cyano-phenoxy)-2-fluoro-phenyl]-acetylamino}-benzenesulfonylamino)-4-oxo-butyric acid]"
8,157.2 to 157.9 °C,"CCCC(=O)NS(=O)(=O)c1ccc(NC(=O)Cc2ccc(Cl)c(Oc3cc(Cl)cc(C#N)c3)c2F)c(Cl)c1.[Na] [Compound I-138, N-(4-Butyrylsulfamoyl-2-chloro-phenyl)-2-[4-chloro-3-(3-chloro-5-cyano-phenoxy)-2-fluoro-phenyl]-acetamide; sodium salt]"
9,171.3 to 171.6 °C,"COc1ccc(CC(=O)Nc2ccccc2)cc1Oc1cc(Cl)cc(C#N)c1 [Compound I-210, 2-[3-(3-Chloro-5-cyano-phenoxy)-4-methoxy-phenyl]-N-phenyl-acetamide]"
